pEC50, pIC50: −log10 of the molar value. Where two headings read alike, the source gives them in different places.
How the values were obtained:
Format in all cases: cell-based
NCI-H358 (K-Ras G12C) = assay: CellTiter-Glo cell viability assay, H358; details: Homo sapiens, NCI-H358, 120 h
Procedure: Determination of Cell Viability in RAS Mutant Cancer Cell Lines
Protocol: CellTiter-Glo® Cell Viability Assay
Note—The following protocol describes a procedure for monitoring cell viability of K-Ras mutant cancer cell lines in response to a compound of the invention. Other RAS isoforms may be employed, though the number of cells to be seeded will vary based on cell line used.
Test compounds (132.5 nL) were directly dispensed into the assay plates containing cells. […] On day 5, assay plates and their contents were equilibrated to room temperature for approximately 30 minutes. […] Luminescence was measured using the PerkinElmer Enspire. Data were normalized by the following: (Sample signal/Avg. DMSO)*100. The data were fit using a four-parameter logistic fit.

AsPC-1 (K-Ras G12D) [1] = assay: CellTiter-Glo cell viability assay, AsPC-1; details: Homo sapiens, ASPC1, 120 h
Outline: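 Viability is scored by CellTiter-Glo luminescence on day 5 of compound treatment, relative to vehicle (DMSO) wells set as 100%, with a four-parameter logistic fit.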

AsPC-1 (K-Ras G12D) [2] = assay: Potency assay: pERK in AsPC-1 cells; details: Homo sapiens
[3] = NCI-H358, K-Ras G12C, 5-day treatment, read-out: H358 Cell Viability IC50
[4] = AsPC-1, K-Ras G12D, 5-day treatment, read-out: AsPC-1 Cell Viability IC50
[5] = read-out: AsPC-1 Cell Viability IC50, AsPC-1, K-Ras G12D, 5-day treatment
[6] = ASPC1, AsPC-1 cells, K-Ras G12D, read-out: pERK EC50 (AsPC-1 KRAS G12D)

Compound	pIC50 (NCI-H358 (K-Ras G12C); [3])	pIC50 (AsPC-1 (K-Ras G12D) [1]; [4])	also measured
CCn1c(-c2cnccc2COC)c2c3cc(ccc31)-c1cccc(c1)C[C@H](NC(=O)[C@H](C(C)C)N(C)C(=O)CCN=C=NCc1ccc(OC)cc1)C(=O)N1CCC[C@H](N1)C(=O)OCC(C)(C)C2 (atropisomer, axis not shown) [18 A and B]	5.00 to 6.00	5.00 to 6.00	–
CCn1c(-c2cnccc2COC)c2c3cc(ccc31)-c1cc(O)cc(c1)C[C@H](NC(=O)[C@H](C(C)C)N(C)C(=O)CCN(C)C(=O)[C@H]1CN1)C(=O)N1CCC[C@H](N1)C(=O)OCC(C)(C)C2 (single isomer, unassigned) [Compound 41]	7.00 to 8.00	< 5.00	–
CCn1c(-c2cnccc2COC)c2c3cc(ccc31)-c1cccc(c1)C[C@H](NC(=O)[C@H](C(C)C)N(C)C(=O)CCN=C=NCCCSC)C(=O)N1CCC[C@H](N1)C(=O)OCC(C)(C)C2 [16 A and B]	5.00 to 6.00	5.00 to 6.00	–
CCn1c(-c2cnccc2COC)c2c3cc(ccc31)-c1cccc(c1)C[C@H](NC(=O)[C@H](C(C)C)N(C)C(=O)CCN=C=NCc1ccccc1)C(=O)N1CCC[C@H](N1)C(=O)OCC(C)(C)C2 [19 A and B]	5.00 to 6.00	6.00 to 7.00	–
CCn1c(-c2cnccc2COC)c2c3cc(ccc31)-c1cccc(c1)C[C@H](NC(=O)[C@H](C(C)C)N(C)C(=O)CCN=C=Nc1ccccc1OC)C(=O)N1CCC[C@H](N1)C(=O)OCC(C)(C)C2 [20 A and B]	5.00 to 6.00	< 5.00	–
CCn1c(-c2cnccc2COC)c2c3cc(ccc31)-c1cccc(c1)C[C@H](NC(=O)[C@H](C(C)C)N(C)C(=O)CCN=C=NCCOC)C(=O)N1CCC[C@H](N1)C(=O)OCC(C)(C)C2 [23 A and B]	5.00 to 6.00	5.00 to 6.00	–
CCn1c(-c2cnccc2COC)c2c3cc(ccc31)-c1cccc(c1)C[C@H](NC(=O)[C@H](C(C)C)N(C)C(=O)CCN=C=Nc1ccc(OC)cc1OC)C(=O)N1CCC[C@H](N1)C(=O)OCC(C)(C)C2 [24 A and B]	5.00 to 6.00	< 5.00	–
CCn1c(-c2cnccc2COC)c2c3cc(ccc31)-c1cccc(c1)C[C@H](NC(=O)[C@H](C(C)C)N(C)C(=O)CCN=C=NCc1c(OC)cccc1OC)C(=O)N1CCC[C@H](N1)C(=O)OCC(C)(C)C2 [62 A and B]	5.00 to 6.00	5.00 to 6.00	–
CCn1c(-c2cnccc2COC)c2c3cc(ccc31)-c1cccc(c1)C[C@H](NC(=O)[C@H](C(C)C)N(C)C(=O)CCN=C=NCCc1cccs1)C(=O)N1CCC[C@H](N1)C(=O)OCC(C)(C)C2 [68 A and B]	5.00 to 6.00	5.00 to 6.00	–
CCn1c(-c2cnccc2COC)c2c3cc(ccc31)-c1cc(O)cc(c1)C[C@H](NC(=O)[C@H](C(C)C)N(C)C(=O)[C@H]1CCN(C(=O)[C@@H]3CN3)C1)C(=O)N1CCC[C@H](N1)C(=O)OCC(C)(C)C2 [Compound 2]	7.00 to 8.00	< 5.00	–
CCn1c(-c2cnccc2COC)c2c3cc(ccc31)-c1cc(O)cc(c1)C[C@H](NC(=O)[C@H](C(C)C)N(C)C(=O)C1CCN(C(=O)[C@H]3CN3)CC1)C(=O)N1CCC[C@H](N1)C(=O)OCC(C)(C)C2 [Compound 3]	6.00 to 7.00	< 5.00	–
CCn1c(-c2cnccc2COC)c2c3cc(ccc31)-c1cc(O)cc(c1)C[C@H](NC(=O)[C@H](C(C)C)N(C)C(=O)C1CCN(C(=O)[C@@H]3CN3)CC1)C(=O)N1CCC[C@H](N1)C(=O)OCC(C)(C)C2 [Compound 4]	6.00 to 7.00	< 5.00	–
CCn1c(-c2cnccc2COC)c2c3cc(ccc31)-c1cc(O)cc(c1)C[C@H](NC(=O)[C@H](C(C)C)N(C)C(=O)C1CN(C(=O)[C@H]3CN3)C1)C(=O)N1CCC[C@H](N1)C(=O)OCC(C)(C)C2 [Compound 5]	7.00 to 8.00	< 5.00	–
CCn1c(-c2cnccc2COC)c2c3cc(ccc31)-c1cc(O)cc(c1)C[C@H](NC(=O)[C@H](C(C)C)N(C)C(=O)C1CN(C(=O)[C@@H]3CN3)C1)C(=O)N1CCC[C@H](N1)C(=O)OCC(C)(C)C2 [Compound 6]	6.00 to 7.00	< 5.00	–
CCn1c(-c2cnccc2COC)c2c3cc(ccc31)-c1cc(O)cc(c1)C[C@H](NC(=O)[C@H](C(C)C)N(C)C(=O)CCN(C)C(=O)[C@@H]1CN1)C(=O)N1CCC[C@H](N1)C(=O)OCC(C)(C)C2 [Compound 40]	6.00 to 7.00	< 5.00	–
CCn1c(-c2cnccc2COC)c2c3cc(ccc31)-c1cc(O)cc(c1)C[C@H](NC(=O)[C@H](C(C)C)N(C)C(=O)N1CCCN(C(=O)[C@H]3CN3)CC1)C(=O)N1CCC[C@H](N1)C(=O)OCC(C)(C)C2 [Compound 44]	> 8.00	5.00 to 6.00	–
CCn1c(-c2cnccc2COC)c2c3cc(ccc31)-c1cc(O)cc(c1)C[C@H](NC(=O)[C@H](C(C)C)N(C)C(=O)N1CCCN(C(=O)[C@@H]3CN3)CC1)C(=O)N1CCC[C@H](N1)C(=O)OCC(C)(C)C2 [Compound 45]	6.00 to 7.00	< 5.00	–
CCn1c(-c2cnccc2COC)c2c3cc(ccc31)-c1cc(O)cc(c1)C[C@H](NC(=O)[C@H](C(C)C)N(C)C(=O)c1ccc(NC(=O)[C@@H]3CN3)cn1)C(=O)N1CCC[C@H](N1)C(=O)OCC(C)(C)C2 [Compound 46]	6.00 to 7.00	< 5.00	–
CCn1c(-c2cnccc2COC)c2c3cc(ccc31)-c1cccc(c1)C[C@H](NC(=O)[C@H](C(C)C)N(C)C(=O)CCN=C=Nc1ccc(N(C)C)cc1)C(=O)N1CCC[C@H](N1)C(=O)OCC(C)(C)C2 [Compound 66]	5.00 to 6.00	< 5.00	–
CCn1c(-c2cnccc2COC)c2c3cc(ccc31)-c1cccc(c1)C[C@H](NC(=O)[C@H](C(C)C)N(C)C(=O)CCN=C=Nc1ccc(N3CCOCC3)cc1)C(=O)N1CCC[C@H](N1)C(=O)OCC(C)(C)C2 [Compound 67]	< 5.00	< 5.00	–
CCn1c(-c2cccnc2[C@H](C)OC)c2c3cc(ccc31)-c1cc(O)cc(c1)C[C@H](NC(=O)[C@H](C(C)C)N(C)C(=O)CN(C)C(=O)[C@H]1CN1CCOC)C(=O)N1CCC[C@H](N1)C(=O)OCC(C)(C)C2 (some centres unmarked) [Compound 159]	–	–	pIC50 (NCI-H358 (K-Ras G12C); read-out: H358 Cell Viability IC50, NCI-H358, K-Ras G12C, 5-day treatment): > 8.00; pIC50 (AsPC-1 (K-Ras G12D) [1]; [5]): 6.00 to 7.00
CCn1c(-c2cccnc2[C@H](C)OC)c2c3cc(ccc31)-c1cc(O)cc(c1)C[C@H](NC(=O)[C@H](C(C)C)N(C)C(=O)[C@@]1(C)CCCN1C(=O)[C@@H]1CN1)C(=O)N1CCC[C@H](N1)C(=O)OCC(C)(C)C2 [Compound 241]	> 8.00	6.00 to 7.00	–
CCn1c(-c2cccnc2[C@H](C)OC)c2c3cc(ccc31)-c1cc(O)cc(c1)C[C@H](NC(=O)[C@H](C(C)C)N(C)C(=O)c1ccc([C@@H]3CN3)nc1)C(=O)N1CCC[C@H](N1)C(=O)OCC(C)(C)C2 [Example 87, 6-((S)-aziridin-2-yl)-N-((2S)-1-(((6^3S,4S)-1^1-ethyl-2^5-hydroxy-1^2-(2-((S)-1-methoxyethyl)pyridin-3-yl)-10,10-dimethyl-5,7-dioxo-6^1,6^2,6^3,6^4,6^5,6^6-hexahydro-1^1H-8-oxa-1(5,3)-indola-6(1,3)-pyridazina-2(1,3)-benzenacycloundecaphane-4-yl)amino)-3-methyl-1-oxobutan-2-yl)-N-methylnicotinamide]	–	5.00 to 6.00	pEC50 (AsPC-1 (K-Ras G12D) [2]; [6]): > 5.30
CCn1c(-c2cccnc2[C@H](C)OC)c2c3cc(ccc31)-c1cc(O)cc(c1)C[C@H](NC(=O)[C@H](C(C)C)N(C)C(=O)N1CCN(C(=O)[C@H]3CN3)CC1)C(=O)N1CCC[C@H](N1)C(=O)OCC(C)(C)C2 [Example 177, 4-((R)-aziridine-2-carbonyl)-N-((2S)-1-(((6^3S,4S)-1^1-ethyl-2^5-hydroxy-1^2-(2-((S)-1-methoxyethyl)pyridin-3-yl)-10,10-dimethyl-5,7-dioxo-6^1,6^2,6^3,6^4,6^5,6^6-hexahydro-1^1H-8-oxa-1(5,3)-indola-6(1,3)-pyridazina-2(1,3)-benzenacycloundecaphane-4-yl)amino)-3-methyl-1-oxobutan-2-yl)-N-methylpiperazine-1-carboxamide]	–	5.00 to 6.00	pEC50 (AsPC-1 (K-Ras G12D) [2]; [6]): > 5.30
CCn1c(-c2cccnc2[C@H](C)OC)c2c3cc(ccc31)-c1cc(O)cc(c1)C[C@H](NC(=O)[C@H](C(C)C)N(C)C(=O)CN(C)C(=O)[C@H]1CN1CCCN1CCCC1=O)C(=O)N1CCC[C@H](N1)C(=O)OCC(C)(C)C2 (stereo partly drawn) [Example 268, (2R)—N-(2-(((2S)-1-(((6^3S,4S)-1^1-ethyl-2^5-hydroxy-1^2-(2-((S)-1-methoxyethyl)pyridin-3-yl)-10,10-dimethyl-5,7-dioxo-6^1,6^2,6^3,6^4,6^5,6^6-hexahydro-1^1H-8-oxa-1(5,3)-indola-6(1,3)-pyridazina-2(1,3)-benzenacycloundecaphane-4-yl)amino)-3-methyl-1-oxobutan-2-yl)(methyl)amino)-2-oxoethyl)-N-methyl-1-(3-(2-oxopyrrolidin-1-yl)propyl)aziridine-2-carboxamide]	–	–	pEC50 (AsPC-1 (K-Ras G12D) [2]; ASPC1, read-out: pERK EC50 (AsPC-1 KRAS G12D)): > 5.30; pIC50 (AsPC-1 (K-Ras G12D) [1]; [5]): 5.00 to 6.00

Reference: US11739074B2, “Ras inhibitors” (Revolution Medicines, Inc., priority 2019, dated 2023)
